Data set [1] deals with T1, recombinant human plasminogen activator inhibitor-1 (PAI-1) (Homo sapiens, UniProt P05121).
T1 construct: purchased Molecular Innovations, Royal Oak, Mich
The experiment in a line: Primary Screen for the PAI-1 Inhibition. It counts as biochemical. The following applies: for inhibition at 100 µM: read-out: % Inhib. 100 μM; for inhibition at 25 µM: read-out: % Inhib. 25 μM. The method, then:
Test compounds are dissolved in DMSO at a final concentration of 10 mM, then diluted 100× in physiologic buffer. The inhibitory assay is initiated by the addition of the test compound (1-100 μM final concentration, maximum DMSO concentration of 0.2%) in a pH 6.6 buffer containing 140 nM recombinant human plasminogen activator inhibitor-1 (PAI-1; Molecular Innovations, Royal Oak, Mich.). Following a 1 hour incubation at room temperature, 70 nM of recombinant human tissue plasminogen activator (tPA) is added, and the combination of the test compound, PAI-1 and tPA is incubated for an additional 30 minutes. Following the second incubation, Spectrozyme-tPA (American Diagnostica, Greenwich, Conn.), a chromogenic substrate for tPA, is added and absorbance read at 405 nm at 0 and 60 minutes. Relative PAI-1 inhibition is equal to the residual tPA activity in the presence of the test compound and PAI-1. Control treatments include the complete inhibition of tPA by PAI-1 at the molar ratio employed (2:1), and the absence of any effect of the test compound on tPA alone.

Where a name gives a salt, the structure may show the parent alone.

T1 sequence (P05121 24-402): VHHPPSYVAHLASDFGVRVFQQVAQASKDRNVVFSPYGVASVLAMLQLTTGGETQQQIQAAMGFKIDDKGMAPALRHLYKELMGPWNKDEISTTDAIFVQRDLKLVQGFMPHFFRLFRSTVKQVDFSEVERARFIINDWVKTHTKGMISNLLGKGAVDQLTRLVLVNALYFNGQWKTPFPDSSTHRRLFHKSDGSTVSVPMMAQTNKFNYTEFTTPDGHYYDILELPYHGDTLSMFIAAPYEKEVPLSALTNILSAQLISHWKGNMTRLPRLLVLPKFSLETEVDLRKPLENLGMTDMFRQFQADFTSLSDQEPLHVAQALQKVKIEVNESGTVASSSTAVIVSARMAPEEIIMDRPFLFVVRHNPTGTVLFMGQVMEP

Broadly, the melting point is the temperature, or range, at which the solid turns liquid. As to `CCCCc1oc2ccccc2c1C(=O)Nc1ccc2c(Br)c(OCC(=O)O)ccc2c1` (as salt: sodium) [Example 6, {1-Bromo-6-[(2-butyl-benzofuran-3-carbonyl)-amino]-naphthalen-2-yloxy}-acetic acid sodium salt], the melting point lay within 284 to 287 °C.

Take `CCCCc1oc2ccccc2c1C(=O)NCc1ccc2cc(OCc3nnn[nH]3)ccc2c1` (as salt: sodium) [Example 8, 2-Butyl-benzofuran-3-carboxylic acid [6-(1H-tetrazol-5-ylmethoxy)-naphthalen-2-ylmethyl]-amide sodium salt]: the melting point fell in the range of 207 to 210 °C.

Turning to `CCCCc1oc2ccccc2c1C(=O)NCc1ccc2c(Br)c(OCC(=O)O)ccc2c1` (as salt: sodium) [Example 19, Sodium; (1-bromo-6-{[(2-butyl-benzofuran-3-carbonyl)-amino]-methyl}-naphthalen-2-yloxy)-acetate], the melting point came to 260 °C.

Consider `CCCCc1oc2ccccc2c1C(=O)NCc1ccc2c(-c3ccc(OC)cc3)c(OCc3nnn[nH]3)ccc2c1` (as salt: sodium) [Example 25, 2-Butyl-benzofuran-3-carboxylic [5-(4-methoxy phenyl)-6-(1H-tetrazol-5-ylmethoxy)-naphthalen-2-ylmethyl]-amide, sodium salt], for which the melting point fell in the range of 147 to 152 °C.

Consider `CCCCc1oc2ccccc2c1C(=O)Nc1ccc2c(Br)c(OCc3nn[nH]n3)ccc2c1` [Example 5, 2-Butyl-benzofuran-3-carboxylic acid [5-bromo-6-(2H-tetrazol-5-ylmethoxy)-naphthalen-2-yl]-amide], for which the melting point was 242 to 245 °C. Moreover, in data set [1] (100 μM test compound), the inhibition at 100 µM came out at 47%.

`CCCCc1oc2ccccc2c1C(=O)NCc1ccc2cc(OCC(=O)[O-])ccc2c1.[Na+]` [Example 9, Sodium; (6-{[(2-butyl-benzofuran-3-carbonyl)-amino]-methyl}-naphthalen-2-yloxy)-acetate] yielded a melting point of more than 275 °C. For the same compound, the inhibition at 25 µM in data set [1] (25 μM test compound) was determined as 28%. Also, the inhibition at 100 µM in data set [1] (100 μM test compound) stood at 89%.

The compound `CCCc1c(C(=O)NCc2ccc3c(Br)c(OCc4nnn[nH]4)ccc3c2)cnn1-c1ccccc1` [Example 22, 1-Phenyl-5-propyl-1H-pyrazole-4-carboxylic acid [5-bromo-6-(1H-tetrazol-5-ylmethoxy)-naphthalen-2-ylmethyl]-amide] yielded a melting point of 219 to 220 °C. Also, the inhibition at 25 µM in data set [1] (25 μM test compound) amounted to 12%. In data set [1] (100 μM test compound), the inhibition at 100 µM was determined as 70%.

Compound `CCCCc1oc2ccccc2c1C(=O)NCc1ccc2c(-c3ccc(C)cc3)c(OCc3nnn[nH]3)ccc2c1` [Example 23, 2-Butyl-benzofuran-3-carboxylic acid [6-(1H-tetrazol-5-ylmethoxy)-5-p-tolyl-naphthalen-2-ylmethyl]-amide] gave a melting point of 162 to 166 °C. Further, the inhibition at 100 µM in data set [1] (100 μM test compound) is 48%.

`CCCCc1oc2ccccc2c1C(=O)NCc1ccc2c(-c3ccc(C(C)(C)C)cc3)c(OCc3nnn[nH]3)ccc2c1` [Example 27, 2-Butyl-benzofuran-3-carboxylic acid [5-(4-tert-butyl-phenyl)-6-(1H-tetrazol-5-ylmethoxy)-naphthalen-2-ylmethyl]-amide] registered a melting point of 75 to 78 °C. For the same compound, the inhibition at 100 µM in data set [1] (100 μM test compound) came to 39%.

Compound `CCCCc1c(C(=O)N(C)Cc2ccc3c(Br)c(OCc4nnn[nH]4)ccc3c2)c2ccccc2n1C` [Example 36, 2-Butyl-1-methyl-1H-indole-3-carboxylic acid [5-bromo-6-(1H-tetrazol-5-ylmethoxy)-naphthalen-2-ylmethyl]-methyl-amide] had a melting point of 147 to 149 °C. For the same compound, in data set [1] (25 μM test compound), the inhibition at 25 µM is 4%. Besides, in data set [1] (100 μM test compound), the inhibition at 100 µM is 46%.

As to `CCCCc1c(C(=O)N(C)Cc2ccc3c(Br)c(OCc4nnn[nH]4)ccc3c2)oc2ccccc12` [Example 39, 3-Butyl-benzofuran-2-carboxylic acid [5-bromo-6-(1H-tetrazol-5-ylmethoxy)-naphthalen-2-ylmethyl]-methyl-amide], the melting point lay within 180 to 183 °C. The inhibition at 25 µM in data set [1] (25 μM test compound) turned out to be 24%. Further, in data set [1] (100 μM test compound), the inhibition at 100 µM is 69%.

As to `Cc1c(C(=O)N(C)Cc2ccc3c(Br)c(OCc4nnn[nH]4)ccc3c2)oc2ccccc12` [Example 41, 3-Methyl-benzofuran-2-carboxylic acid [5-bromo-6-(1H-tetrazol-5-ylmethoxy)-naphthalen-2-ylmethyl]-methyl-amide], the melting point fell in the range of 164 to 166 °C. Besides, the inhibition at 25 µM in data set [1] (25 μM test compound) is 49%. Besides, the inhibition at 100 µM in data set [1] (100 μM test compound) is 91%.

For the compound `Cc1c(C(=O)NCc2ccc3c(Br)c(OCc4nnn[nH]4)ccc3c2)oc2ccccc12` [Example 43, 3-Methyl-benzofuran-2-carboxylic acid [5-bromo-6-(1H-tetrazol-5-ylmethoxy)-naphthalen-2-ylmethyl]-amide], the melting point was in the range of 212 to 215 °C. Moreover, the inhibition at 25 µM in data set [1] (25 μM test compound) was 47%. The inhibition at 100 µM in data set [1] (100 μM test compound) turned out to be 71%.

In turn, `Cc1c(C(=O)NCc2ccc3c(Br)c(OC(Cc4ccccc4)C(=O)O)ccc3c2)oc2ccccc12` (centres unmarked) [Example 44, 2-(1-Bromo-6-{[(3-methyl-benzofuran-2-carbonyl)-amino]-methyl}-naphthalen-2-yloxy)-3-phenyl-propionic acid] returned a melting point of 110 to 113 °C.

On to `CN(Cc1ccc2c(Br)c(OCc3nnn[nH]3)ccc2c1)C(=O)c1oc2ccccc2c1CCc1ccccc1` [Example 45, 3-Phenethyl-benzofuran-2-carboxylic acid [5-bromo-6-(1H-tetrazol-5-ylmethoxy)-naphthalen-2-ylmethyl]-methyl-amide], for which the melting point lay in the range of 56 to 59 °C. For the same compound, in data set [1] (100 μM test compound), the inhibition at 100 µM was 17%.

Compound `CN(Cc1ccc2c(Br)c(OC(Cc3ccccc3)C(=O)O)ccc2c1)C(=O)c1oc2ccccc2c1CCc1ccccc1` (centres unmarked) [Example 46, 2-(1-Bromo-6-{[methyl-(3-phenethyl-benzofuran-2-carbonyl)-amino]-methyl}-naphthalen-2-yloxy)-3-phenyl-propionic acid] returned a melting point of 87 to 90 °C. Moreover, the inhibition at 25 µM in data set [1] (25 μM test compound) stood at 58%. Besides, the inhibition at 100 µM in data set [1] (100 μM test compound) came to 88%.

On to `CN(Cc1ccc2c(Br)c(OCC(=O)O)ccc2c1)C(=O)c1oc2ccccc2c1CCc1ccccc1` [Example 47, (1-Bromo-6-{[methyl-(3-phenethyl-benzofuran-2-carbonyl)-amino]-methyl}-naphthalen-2-yloxy)-acetic acid], for which the melting point lay within 119 to 122 °C. Besides, in data set [1] (25 μM test compound), the inhibition at 25 µM amounted to 59%. For the same compound, the inhibition at 100 µM in data set [1] (100 μM test compound) was 90%.

In the case of `O=C(O)COc1ccc2cc(NC(=O)C3(c4ccc(Cl)cc4)CCCCC3)ccc2c1` [Example 79, (6-{[1-(4-Chloro-phenyl)-cyclohexanecarbonyl]-amino}-naphathalen-2-yloxy)-acetic acid], the “% Inhib. 25 μM” value in data set [1] (25 μM test compound) was 19%. Further, the “% Inhib. 100 μM” value in data set [1] (100 μM test compound) was 50%.

Turning to `O=C(O)COc1ccc2cc(NC(=O)C3(c4ccc(Cl)cc4)CCC3)ccc2c1` [Example 80, (6-{[1-(4-Chloro-phenyl)-cyclobutanecarbonyl]-amino}-naphthalen-2-yloxy)-acetic acid], the inhibition at 100 µM in data set [1] (100 μM test compound) came out at 48%.

Regarding `O=C(O)COc1ccc2cc(CNC(=O)c3cc(-c4ccc(C(F)(F)F)cc4)oc3C(F)(F)F)ccc2c1` [Example 82, [6-({[2-Trifluoromethyl-5-(4-trifluoromethyl-phenyl)-furan-3-carbonyl]-amino}methyl)-naphthalen-2-yloxy]-acetic acid], the inhibition at 25 µM in data set [1] (25 μM test compound) was 9%. The inhibition at 100 µM in data set [1] (100 μM test compound) was 68%.

With `O=C(O)COc1ccc2cc(CNC(=O)c3ccccc3CCc3ccccc3)ccc2c1` [Example 83, {6-[(2-Phenethyl-benzoylamino)-methyl]-naphthalen-2-yloxy}-acetic acid], the inhibition at 100 µM in data set [1] (100 μM test compound) came to 45%.

As to `O=C(O)COc1ccc2cc(CNC(=O)C3(c4ccc(Cl)cc4)CCCC3)ccc2c1` [Example 84, [6-({[1-(4-Chloro-phenyl)-cyclopentanecarbonyl]-amino}-methyl)-naphthalen-2-yloxy]-acetic acid], the inhibition at 100 µM in data set [1] (100 μM test compound) is 34%.

On to `O=C(O)COc1ccc2cc(CNC(=O)c3ccc(-c4cccc(C(F)(F)F)c4)o3)ccc2c1` [Example 85, [6-({[5-(3-Trifluoromethyl-phenyl)-furan-2-carbonyl]-amino}-methyl)-naphthalen-2-yloxy]-acetic acid], for which, in data set [1] (100 μM test compound), the inhibition at 100 µM is 34%.

In the case of `CC(C)(C)c1cc(C(=O)NCc2ccc3cc(OCC(=O)O)ccc3c2)cc(C(C)(C)C)c1` [Example 86, {6-[(3,5-Di-tert-butyl-benzoylamino)methyl]-naphthalen-2-yloxy}-acetic acid], the inhibition at 100 µM in data set [1] (100 μM test compound) amounted to 33%.

For the compound `O=C(O)COc1ccc2cc(CNC(=O)C3(c4ccccc4)CCCC3)ccc2c1` [Example 87, (6-{[(1-Phenyl-cyclopentanecarbonyl)-amino]-methyl}-naphthalen-2-yloxy)-acetic acid], in data set [1] (100 μM test compound), the inhibition at 100 µM stood at 32%.

The record behind these values is US6589970B2, “6-(aryl-amido or aryl-amidomethyl)-naphthalen-2-yloxy-acidic derivatives as inhibitors of plasminogen activator inhibitor type-1 (PAI-1)” (Wyeth, priority 2001, dated 2003).
